Data: US10993957B2 (NuCana plc, priority 2011, dated 2021)
Read-outs that look alike come from different tables or passages of the source.

Columns and labels:
Cem/TK^− = assay: Cytostatic assay, thymidine kinase-deficient CEM/TK^− cells; type: cell-based, human; details: for CC50: Table 1, read-out: CC50 Cem/TK^−; for IC50: Table 6, read-out: IC50 Cem/TK^−
Cem/hEnt-0 = assay: Cytostatic assay, CEM cells lacking the hEnt1 transporter; type: cell-based; details: read-out: IC50 Cem/hEnt-0
From the text: (§1) Data are mean (±SD) of at least two to four independent experiments. Table 8 identifies the phosphoramidate motif of compounds embodying the present invention, as discussed above with respect to Table 6, but with “Naph” standing for 1-naphthyl.

L1210/TK^− = assay: Cytostatic assay, thymidine kinase-deficient L1210/TK^− cells; type: cell-based, murine; details: for CC50: L1210, Table 1, read-out: CC50 L1210/TK^−; for IC50: Table 6, read-out: IC50 L1210/TK^−
L1210.Hyor = assay: Cytostatic assay, Mycoplasma hyorhinis-infected L1210 cells; details: for % Retention: CC50 L1210 × 100 ÷ CC50 L1210/Hyor
In short: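 Suspension L1210/0 murine leukaemia cells infected with M. hyorhinis, seeded at 60,000 cells/well with test compound in DMEM/10% FBS and grown 48 h at 37 °C, 5% CO2. Cell number counted by Coulter counter; activity also expressed as % retained versus uninfected cells.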

Cem/hEnt-1 = assay: Cytostatic assay, CEM cells containing the hEnt1 transporter; type: cell-based
From the text: as §1

HeLa = assay: Cytostatic assay, HeLa cells; type: cell-based; details: for IC50: Table 6, read-out: IC50 HeLa
From the text: (§2) The cell lines employed were L1210/0 (a leukemia cell line), FM3A/0 (a breast cancer cell line), Cem/0 (an acute lymphoblastic leukemia cell line) and HeLa (a cervical cell line).

Cem/0 = assay: Cytostatic assay, CEM/0 cells; type: cell-based, human; details: for CC50: Table 1, read-out: CC50 Cem/0; for IC50: Table 6, read-out: IC50 Cem/0
From the text: as §2

L1210/0 = assay: Cytostatic assay, L1210/0 cells; type: cell-based, murine; details: for IC50: read-out: IC50 L1210/0
From the text: as §2

HeLa/TK^− = assay: Cytostatic assay, HeLa/TK^− cells; type: cell-based; details: Table 6, read-out: IC50 HeLa/TK^−
From the text: as §2

FM3A/0 = assay: Cytostatic assay, FM3A/0 cells; type: cell-based; details: Mus musculus, FM3A/0, read-out: CC50 FM3A/0
Description: The samples were assayed for biological activity versus a range of tumour cell lines with data recorded in Table 1 below. […] The cell lines employed were L1210/0 (a leukemia cell line), FM3A/0 (a breast cancer cell line), Cem/0 (an acute lymphoblastic leukemia cell line) and HeLa (a cervical cell line).

human UP = human UP (Homo sapiens, UniProt Q16831); assay: Phosphorolysis by human UP, HPLC; details: 100 μM compound, room temperature, 0-40 min
Sequence of human UP (Q16831 whole entry): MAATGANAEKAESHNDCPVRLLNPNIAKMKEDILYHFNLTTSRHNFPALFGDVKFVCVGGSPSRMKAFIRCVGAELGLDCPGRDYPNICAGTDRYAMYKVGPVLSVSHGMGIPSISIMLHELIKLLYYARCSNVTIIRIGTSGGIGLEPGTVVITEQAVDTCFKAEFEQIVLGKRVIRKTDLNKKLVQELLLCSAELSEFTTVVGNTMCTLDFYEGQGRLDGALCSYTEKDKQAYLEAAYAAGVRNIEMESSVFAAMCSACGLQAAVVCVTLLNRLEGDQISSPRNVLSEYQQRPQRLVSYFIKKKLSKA
Description: Reaction mixtures containing 100 μM test compound and recombinant TP or UP (human TP: 8.6 ng/μL; E. coli TP: 3.0 ng/μL; human UP: 4 ng/mL) in a total volume of 500 μL reaction buffer (10 mM TrisHCl; 300 μM NaCl; 1 mM EDTA; 2 mM KH2PO4/K2HPO4) were incubated at room temperature. At different time points (i.e. 0, 20, 40 min) 100 μL aliquots of the reaction mixtures were withdrawn and heated at 95° C. for 3 min to inactivate the enzyme. […] The separation of Urd from uracil was performed by a linear gradient from 100% separation buffer (see above) to 60% separation buffer+40% acetonitrile (3 min 100% separation buffer; 6 min linear gradient of 100% separation buffer to 60% separation buffer+40% acetonitrile; 6 min 60% separation buffer+40% acetonitrile, followed by equilibration at 100% separation buffer).

[1] = Mus musculus, L1210, read-out: CC50 L1210/Hyor
[2] = Mus musculus, L1210, read-out: IC50 L1210.Hyor
[3] = Homo sapiens, CCRF-CEM, read-out: IC50 Cem/hEnt-1
[4] = read-out: IC50 Cem/hEnt-1 + NBMPR, in the presence of NBMPR
[5] = read-out: IC50 Cem/hEnt-1 + dipyridamole, in the presence of dipyridamole
[6] = Mus musculus, L1210/0, Table 1, read-out: CC50 L1210/0
[7] = Mus musculus, L1210/0, Table 2, mycoplasma negative cells, read-out: CC50 L1210

Structure (SMILES): CCOC(=O)C(C)(C)NP(=O)(OC[C@H]1O[C@@H](n2cc(F)c(=O)[nH]c2=O)CC1O)Oc1ccccc1 (stereo partly drawn) [CPF 394, 5-Fluoro-2′deoxyuridine-5′-O-[phenyl (ethoxy-α,α-dimethylglycine)]phosphate]
- CC50 (Cem/TK^−; Homo sapiens, CEM-TK(-)): 22 ± 1 µM
- IC50 (Cem/TK^−; Homo sapiens, CEM-TK(-)): 22 ± 1 µM
- IC50 (Cem/hEnt-0; Homo sapiens, CCRF-CEM): 5.8 ± 0.5 µM
- CC50 (L1210/TK^−; Mus musculus): 4.6 µM
- IC50 (L1210/TK^−; Mus musculus, L1210): 4.6 µM
- % Retention (L1210.Hyor): 12%
- CC50 (L1210.Hyor; [1]): 0.26 µM
- IC50 (L1210.Hyor; [2]): 0.26 ± 0.01 µM
- IC50(L1210.Hyor)/IC50(L1210/0) (L1210.Hyor; Table 7): 8.7
- IC50 (Cem/hEnt-1; [3]): 0.37 ± 0.14 µM
- IC50 (Cem/hEnt-1; [4]): 2.56 µM
- IC50 (Cem/hEnt-1; [5]): 2.35 µM
- IC50 (HeLa; Homo sapiens, HeLa): 0.59 ± 0.09 µM
- CC50 (Cem/0; Homo sapiens, CCRF-CEM): 0.65 ± 0.16 µM
- IC50 (Cem/0; Homo sapiens, CCRF-CEM): 0.65 ± 0.16 µM
- CC50 (L1210/0; [6]): 0.039 ± 0.001 µM
- CC50 (L1210/0; [7]): 0.03 µM
- IC50 (L1210/0; Mus musculus, L1210/0, Table 6): 0.039 ± 0.001 µM
- IC50 (L1210/0; Mus musculus, L1210/0, Table 7): 0.03 ± 0.0005 µM
- IC50 (HeLa/TK^−; Homo sapiens, HeLa): 17 ± 2 µM

Structure (SMILES): CC(C)(NP(=O)(OCC1OC(n2cc(F)c(=O)[nH]c2=O)CC1O)Oc1cccc2ccccc12)C(=O)OCc1ccccc1 (stereo not drawn) [CPF 395, 5-Fluoro-2′deoxyuridine-5′-O-[1-naphthyl (benzoxy-α,α-dimethylglycine)]phosphate]
- IC50 (Cem/TK^−): 2.4 ± 0.8 µM
- IC50 (Cem/hEnt-0; Table 8): 0.4 ± 0.13 µM
- IC50 (L1210/TK^−): 0.13 ± 0.04 µM
- % Retention (L1210.Hyor): 42%
- IC50(L1210.Hyor)/IC50(L1210/0) (L1210.Hyor; Table 7): 2.4
- CC50 (L1210.Hyor; read-out: CC50 L1210/Hyor, Table 2, mycoplasma positive cells): 0.045 µM
- IC50 (L1210.Hyor; read-out: IC50 L1210.Hyor, Table 7): 0.045 ± 0.004 µM
- IC50 (Cem/hEnt-1; Table 8, read-out: IC50 Cem/hEnt-1): 0.05 ± 0.03 µM
- IC50 (Cem/hEnt-1; in the presence of NBMPR, read-out: IC50 Cem/hEnt-1 + NBMPR): 0.28 µM
- IC50 (Cem/hEnt-1; in the presence of dipyridamole, read-out: IC50 Cem/hEnt-1 + dipyridamole): 0.16 µM
- IC50 (HeLa): 0.078 ± 0.02 µM
- IC50 (Cem/0): 0.16 ± 0.02 µM
- CC50 (L1210/0; Table 2, mycoplasma negative cells, read-out: CC50 L1210): 0.019 µM
- IC50 (L1210/0; Table 6): 0.011 ± 0.005 µM
- IC50 (L1210/0; Table 7): 0.019 ± 0.004 µM
- IC50 (HeLa/TK^−): 3.1 ± 0.6 µM

Structure (SMILES): CCOC(=O)C(C)(C)NP(=O)(OC[C@H]1O[C@@H](n2cc(F)c(=O)[nH]c2=O)CC1O)Oc1cccc2ccccc12 (stereo partly drawn) [CPF 396, 5-Fluoro-2′deoxyuridine-5′-O-[1-naphthyl (ethoxy-α,α-dimethylglycine)]phosphate]
- CC50 (Cem/TK^−; Homo sapiens, CEM-TK(-)): 6.9 ± 1.8 µM
- IC50 (Cem/TK^−; Homo sapiens, CEM-TK(-)): 6.9 ± 1.8 µM
- IC50 (Cem/hEnt-0; Homo sapiens, CCRF-CEM): 1.4 ± 0.2 µM
- CC50 (L1210/TK^−; Mus musculus): 0.82 ± 0.16 µM
- IC50 (L1210/TK^−; Mus musculus, L1210): 0.82 ± 0.16 µM
- % Retention (L1210.Hyor): 33%
- CC50 (L1210.Hyor; [1]): 0.17 µM
- IC50 (L1210.Hyor; [2]): 0.17 ± 0.03 µM
- IC50(L1210.Hyor)/IC50(L1210/0) (L1210.Hyor; Table 7): 3
- IC50 (Cem/hEnt-1; [3]): 0.21 ± 0.07 µM
- IC50 (Cem/hEnt-1; [4]): 0.62 µM
- IC50 (Cem/hEnt-1; [5]): 0.52 µM
- IC50 (HeLa; Homo sapiens, HeLa): 0.2 ± 0.12 µM
- CC50 (Cem/0; Homo sapiens, CCRF-CEM): 0.36 ± 0.05 µM
- IC50 (Cem/0; Homo sapiens, CCRF-CEM): 0.36 ± 0.05 µM
- CC50 (L1210/0; [6]): 0.064 ± 0.008 µM
- CC50 (L1210/0; [7]): 0.056 µM
- IC50 (L1210/0; Mus musculus, L1210/0, Table 6): 0.064 ± 0.008 µM
- IC50 (L1210/0; Mus musculus, L1210/0, Table 7): 0.056 ± 0.04 µM
- IC50 (HeLa/TK^−; Homo sapiens, HeLa): 3.2 µM

Structure (SMILES): C[C@H](NP(=O)(OC[C@H]1O[C@@H](n2cc(F)c(=O)[nH]c2=O)CC1O)Oc1cccc2ccccc12)C(=O)OC1CCCCC1 (stereo partly drawn) [CPF 509, 5-Fluoro-2′deoxyuridine-5′-O-[1-naphthyl (cyclohexoxy-L-alaninyl)]phosphate]
- IC50 (Cem/TK^−; Homo sapiens, CEM-TK(-)): 1 ± 0.1 µM
- CC50 (L1210/TK^−; Mus musculus): 0.15 µM
- IC50 (L1210/TK^−; Mus musculus, L1210): 0.15 µM
- IC50 (L1210.Hyor; [2]): 0.049 ± 0.004 µM
- IC50(L1210.Hyor)/IC50(L1210/0) (L1210.Hyor; Table 7): 1.4
- CC50 (HeLa; Homo sapiens, HeLa, Table 1, read-out: CC50 HeLa): 0.09 ± 0.014 µM
- IC50 (HeLa; Homo sapiens, HeLa): 0.09 ± 0.014 µM
- CC50 (FM3A/0): 0.31 ± 0.06 µM
- CC50 (Cem/0; Homo sapiens, CCRF-CEM): 0.057 ± 0.055 µM
- IC50 (Cem/0; Homo sapiens, CCRF-CEM): 0.057 ± 0.055 µM
- CC50 (L1210/0; [6]): 0.043 ± 0.023 µM
- IC50 (L1210/0; Mus musculus, L1210/0, Table 6): 0.043 ± 0.023 µM
- IC50 (L1210/0; Mus musculus, L1210/0, Table 7): 0.036 ± 0.017 µM

Structure (SMILES): O=c1ccn([C@@H]2O[C@H](CO)[C@@H](O)[C@H]2O)c(=O)[nH]1 [uridine, reference compound]
- Phosphorolysis by human UP (human UP): converted to uracil
